# Data reported in patent US20260355165A1, “2,3,4,9-TETRAHYDRO-1H-PYRIDO[3,4-B]INDOLE DERIVATIVES AS ESTROGEN RECEPTOR MODULATORS FOR THE TREATMENT OF CANCER” (Olema Pharmaceuticals, Inc., priority 2022, published 2026).
# Target: T1, estrogen receptor (Homo sapiens, UniProt P03372)
# T1 construct: endogenous in cells; host or cells: ECC-1 cells
# T1 sequence (P03372 1-595): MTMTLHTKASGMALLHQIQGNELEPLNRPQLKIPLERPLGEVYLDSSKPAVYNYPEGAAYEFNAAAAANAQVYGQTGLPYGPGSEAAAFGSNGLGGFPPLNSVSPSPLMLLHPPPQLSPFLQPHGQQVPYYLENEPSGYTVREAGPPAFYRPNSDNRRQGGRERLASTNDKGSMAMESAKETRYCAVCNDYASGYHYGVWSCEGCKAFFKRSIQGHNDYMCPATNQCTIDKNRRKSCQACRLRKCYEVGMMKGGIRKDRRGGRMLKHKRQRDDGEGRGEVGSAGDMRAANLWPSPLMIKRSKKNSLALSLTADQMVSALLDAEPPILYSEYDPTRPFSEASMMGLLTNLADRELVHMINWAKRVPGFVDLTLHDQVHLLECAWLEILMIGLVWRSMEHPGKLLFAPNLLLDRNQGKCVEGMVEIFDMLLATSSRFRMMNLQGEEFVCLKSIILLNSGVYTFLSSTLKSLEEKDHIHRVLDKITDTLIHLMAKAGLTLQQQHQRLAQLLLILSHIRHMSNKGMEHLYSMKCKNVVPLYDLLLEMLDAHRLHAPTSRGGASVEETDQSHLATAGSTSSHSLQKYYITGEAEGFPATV
# Assay: AP assay (alkaline phosphatase activity in ECC-1 cells), agonist mode (absence of E2) and antagonist mode (presence of 500 pM E2)
# Format: cell-based
# Conditions: 3 days, AP activity normalized to 500 pM E2 alone, agonist and antagonist mode combined
# Procedure, shortened: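 Read-out is absorbance at 405 nm from p-nitrophenyl phosphate cleavage (40 min, 42 °C), expressed relative to 500 pM E2 alone. Compounds were applied to ECC-1 cells in hormone-depleted medium for 3 days, either alone (agonist) or alongside 500 pM E2 (antagonist).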
row,SMILES,"Activity (estrogen receptor modulation, e.g., agonism and antagonism)"
1,"C[C@@H]1Cc2c([nH]c3ccccc23)[C@@H](c2n[nH]c3cc(CN4CC(CF)C4)ccc23)N1CC(C)(C)F [Compound I-10, (1S,3R)-1-[6-[[3-(fluoromethyl)azetidin-1-yl]methyl]-1H-indazol-3-yl]-2-(2-fluoro-2-methyl-propyl)-3-methyl-1,3,4,9-tetrahydropyrido[3,4-b]indole]",+++ (estrogen receptor antagonism (i) with pIC50 greater than 7.5 and at least a 10% reduction in the E2-normalized signal in the AP assay (antagonist mode); and (ii) no more than 10% increase in E2-normalized signal in the AP assay (agonist mode))
2,"CC1CN(Cc2ccc3c([C@@H]4c5[nH]c6ccccc6c5C[C@@H](C)N4CC(F)(F)CO)n[nH]c3c2)C1 [Compound I-17, 2,2-difluoro-3-((1S,3R)-3-methyl-1-(6-((3-methylazetidin-1-yl)methyl)-1H-indazol-3-yl)-1,3,4,9-tetrahydro-2H-pyrido[3,4-b]indol-2-yl)propan-1-ol]",+++ (estrogen receptor antagonism (i) with pIC50 greater than 7.5 and at least a 10% reduction in the E2-normalized signal in the AP assay (antagonist mode); and (ii) no more than 10% increase in E2-normalized signal in the AP assay (agonist mode))
3,"C[C@@H]1Cc2c([nH]c3ccccc23)[C@@H](c2cc(F)c3oc(CN4CC(CF)C4)nc3c2)N1CC(C)(C)F [Compound I-79, 7-fluoro-2-[[3-(fluoromethyl)azetidin-1-yl]methyl]-5-[(1R,3R)-2-(2-fluoro-2-methyl-propyl)-3-methyl-1,3,4,9-tetrahydropyrido[3,4-b]indol-1-yl]-1,3-benzoxazole]",+ (estrogen receptor agonism having (i) at least 80% increase in the E2-normalized signal in the AP assay (agonist mode) and (ii) no more than 80% reduction in the E2-normalized signal in the AP assay (antagonist mode))
